The test concerns MDA-MB-468 cells. The experiment in a line: MDA-MB-468 cell activity test (CellTiter-Glo). The test is classed as cell-based. Here is the method: Experimental materials: L15 medium, fetal bovine serum, penicillin/streptomycin antibiotics were purchased from Vicente. CellTiter-Glo (chemiluminescence detection reagent for cell viability) reagent was purchased from Promega. The MDA-MB-468 cell line was purchased from Cobioer Biosciences Co., Ltd. Nivo Multilabel Analyzer (PerkinElmer).
Experimental method: MDA-MB-468 cells were seeded in a white 96-well plate, 80 μL of cell suspension per well, which contained 1000 MDA-MB-468 cells. The cell plate was incubated overnight in a carbon dioxide incubator. The compounds to be tested were diluted 5-fold to the 9th concentration with a row gun, that is, from 10 mM to 25.6 nM, and a double-replicate well experiment was set up. 78 μL of medium was added to the middle plate, and then transferred 2 μL per well of the gradient diluted compound to the middle plate according to the corresponding position, mixed well and transferred 20 μL per well to the cell plate. The concentration of compound transferred to the cell plate ranged from 50 μM to 0.128 nM. The cell plate was incubated in a carbon dioxide incubator for 7 days. Another cell plate was prepared, and the signal value was read as the maximum value (Max value in the equation below) on the day of drug addition to participate in data analysis. 25 μL of chemiluminescence detection reagent for cell viability was added to each well of the cell plate, and incubated at room temperature for 10 minutes to stabilize the luminescence signal. A multi-label analyzer was used for reading.
Data analysis: Using the equation (Sample−Min)/(Max−Min)×100% to convert the original data into inhibition rate, the IC50 value can be obtained by curve fitting with four parameters (obtained by the mode of log(inhibitor) vs. response—Variable slope in GraphPad Prism).
Background: ATP-based viability assays read luminescence as a measure of living cells.

Take `C[C@@]1(O)CCC[C@H]1N1C(=O)CCc2cnc(NC3CCN(S(C)(=O)=O)CC3)nc21` [Compound 1A]: the IC50 (usually the concentration at which inhibition is half-maximal) (Homo sapiens, 168 h, MDA-MB-468 cells (Rb-negative), 7 days, read-out: Antiproliferative activity (IC50) MDA-MB-468) came out at 640 nM. Besides, for the setting “ratio of antiproliferative IC50, MDA-MB-468/HCC1806”, the “Selectivity ratio(MDA-MB-468/HCC1806)” value is on record as 4.1.
